For 79 molecules, RP-LC retention time results are on record in the METLIN SMRT retention time set (Domingo-Almenara et al. 2019).

The structures appear in SMILES notation.

This data set in a line: gradient 5% acetonitrile 3 min, to 50% in 2 min, to 85% in 15 min, held 3 min, 100 µL/min. The following applies: column: Zorbax Extend-C18 2.1 x 50 mm; eluents: water / acetonitrile, 0.1% formic acid. The method, boiled down: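 Retention times come from adduct peaks that were picked computationally and then checked by hand. The standards, pure and pooled in mixtures of ~100 molecules, were run on a Zorbax Extend-C18 column (2.1 × 50 mm, 1.8 μm) at 100 μL/min with water and acetonitrile, each with 0.1% formic acid. Detection was by quadrupole time-of-flight mass spectrometry in positive and negative ionization mode, with a dead volume of 40 μL and a dwell volume of 900 μL.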
For the molecule `O=C(c1cccs1)N1CCCC1c1nc(-c2ccc(F)cc2F)no1` (centres undefined), the RP-LC retention time was 926 s.

The molecule `COC(=O)c1ccc(NCc2cc(O)ccc2O)cc1` yielded an RP-LC retention time of 680 s. In turn, `Cc1[nH]c(C(=O)N2CCC(CC(=O)N3CCC(C)CC3)CC2)c(C)c1C(=O)OC(C)C` gave an RP-LC retention time of 849 s.

Consider `Cc1ccc(S(=O)(=O)[C@H]2CS(=O)(=O)C[C@@H]2N2CCN(Cc3ccccc3)CC2)cc1`, for which the RP-LC retention time was found to be 651 s.

Molecule `CC1=C(c2ccc(C)cc2)S(=O)(=O)N=C1N1CCCN(C(=O)NC(C)C)CC1` yielded an RP-LC retention time of 772 s.

Molecule `Cc1noc(C2(NC(=O)C3CCCCC3)CCCCC2)n1` returned an RP-LC retention time of 873 s. The figure for `Cc1ccc(Cn2c(=O)n(CCNC(=O)c3cnccn3)c3ncccc32)cc1` is 737 s. The figure for `CC(=O)Nc1ccc(S(=O)(=O)NCCc2cn(CC(C)C)c3ncccc23)cc1` is 726 s; for `O=C(c1n[nH]c2c1CCCC2)N1CCN(c2ccc(=O)n(-c3ccc(Cl)cc3)n2)CC1` it is 758 s. The figure for `Cc1cc(N2CCN(C(=O)Nc3ccc(Cl)cc3)CC2)nc(N2CCOCC2)n1` is 655 s. Regarding `O=C(Nc1ccc2[nH]nc(-c3ccncc3)c2c1)[C@@H]1CCN(CC(=O)N2CCN(c3ccc(-c4ncccn4)cc3)CC2)C1`, the RP-LC retention time came to 628 s. For `CCc1cc(=O)n(CC(=O)Nc2cc(C)ccc2OC)c(N2CCOCC2)n1`, the RP-LC retention time worked out at 854 s. As to `COC(=O)c1ccccc1Nc1c(-c2ccc(F)cc2)nc2cnc(Br)cn12`, the RP-LC retention time turned out to be 1120 s. The figure for `CCN1C(=O)C2(CCN(S(=O)(=O)Cc3ccccc3Cl)CC2)c2ccccc21` is 1030 s. The molecule `Cc1cccc(NC(=O)C2CCCN(S(=O)(=O)c3c[nH]c(C(=O)N4CCCCCC4)c3)C2)c1C` (centres undefined) gave an RP-LC retention time of 883 s. Consider `CN1C(=O)Cc2cc(C(=O)NCc3ccccc3C(F)(F)F)ccc21`, for which the RP-LC retention time was found to be 773 s. The figure for `CN1C(=O)c2cccn2CC1C(=O)Nc1cccc(Cl)c1` (centres undefined) is 730 s; for `CCOc1nc2ccccc2nc1N1CCCC(C(=O)Nc2ccccc2OC)C1` (centres undefined) it is 1250 s. To `Cc1cc(F)ccc1NC(=O)C1CCCN1S(=O)(=O)c1cc2c(cc1Cl)NC(=O)CO2` (centres undefined) belongs 745 s. In turn, `CCOC(=O)c1cc(S(=O)(=O)N2CCCC2C(=O)Nc2ccc(C)cc2Br)cn1C` (centres undefined) had an RP-LC retention time of 1060 s. Molecule `Cc1ccc(C)c(CNC(=O)CCNc2cnc3cnccn23)c1` displayed an RP-LC retention time of 605 s.

For `Cc1ccc(NC(=O)Nc2ccc3c(c2)CCN3S(=O)(=O)c2ccccc2)cc1F`, the RP-LC retention time is 1020 s.

With `Cc1ccc(CNC(=O)C2CCN(C(=O)c3cc(-c4cccnc4)n[nH]3)CC2)o1`, the RP-LC retention time stood at 586 s. On to `Cc1ccc(NC(=O)CN2C(=O)CCc3cc(S(=O)(=O)N4CCCCC4C)ccc32)cc1` (centres undefined), for which the RP-LC retention time came to 797 s. For `CCOC(=O)CNC(=O)c1cn(CC)nc1S(=O)(=O)N1CCN(c2ccccc2OCC)CC1`, the RP-LC retention time was found to be 962 s. As for `Cc1cc(=O)n(CC(=O)Nc2cc(F)cc(F)c2)c(N2CCCCC2)n1`, the RP-LC retention time was found to be 733 s. The figure for `Cc1ccsc1C(=O)N1CCc2cc(-c3ccno3)ccc21` is 924 s; for `Cc1ccc(-c2csc(Nc3cc(C)ccn3)n2)cc1` it is 843 s; for `COc1ccc(CCNC(=O)c2nnc(-c3ccc(S(=O)(=O)N4CCCC4)cc3)o2)cc1OC` it is 824 s. In the case of `CCN1CCN(c2ccc(NC(=O)c3cc(Cl)ccc3F)cn2)C1=O`, the RP-LC retention time is 747 s. `CN(CCC#N)c1ccc(NC(=O)c2ccc(Br)cc2)cc1C(=O)O` gave an RP-LC retention time of 740 s. The figure for `COc1ccc(-c2nc(Cn3cnc4ccccc4c3=O)no2)c(OC)c1` is 765 s.

As to `CCc1noc2nc(C)n(CC(=O)NCC(C)c3ccccc3)c(=O)c12` (centres undefined), the RP-LC retention time was determined as 835 s. In turn, `O=C(O)c1cccn2c(=O)c3cc(F)ccc3nc12` had an RP-LC retention time of 681 s.

The molecule `CNC(=O)Nc1ccc(C2(C(=O)NCc3ccco3)CCC2)cc1` gave an RP-LC retention time of 670 s. As for `O=C(Cn1nc2n(c1=O)CCCCC2)NCc1ccccc1Br`, the RP-LC retention time worked out at 705 s. The figure for `CC(C)NC(=O)NCCC1CCN(S(=O)(=O)c2ccc(F)cc2)CC1` is 782 s. Molecule `COC(=O)c1cnn(C(=O)c2ccc(OC)cc2)c1N` showed an RP-LC retention time of 829 s. Consider `O=C(Cc1cccs1)N1CCC(c2noc(-c3ccncc3)n2)C1` (centres undefined), for which the RP-LC retention time amounted to 702 s. For the molecule `CNC(=O)N1CCCN(C2=NS(=O)(=O)C(c3ccc(F)cc3)=C2C)CC1`, the RP-LC retention time came to 681 s.

`O=C(NCCN1CCOCC1)c1ccc(Nc2c(-c3ccc(Cl)cc3)nc3cnccn23)cc1`: the RP-LC retention time is 620 s. To `Cc1ccccc1CN1CCN(c2ccccn2)CC1` belongs 566 s.

For `O=C(Nc1nc(-c2cc([N+](=O)[O-])cs2)cs1)c1coc2ccccc2c1=O`, the RP-LC retention time was determined as 1110 s.

In the case of `CCOc1ccc(C(=O)n2nc(C)c(S(=O)(=O)N3CCC(C)CC3)c2C)cc1`, the RP-LC retention time came to 1280 s. The figure for `O=C(COc1ccccc1)N1CCN(Cc2ccccc2)c2ncccc21` is 884 s; for `O=C(Cn1ccc2ccc(N3CCOCC3)nc21)N1CCN(c2ccccn2)CC1` it is 616 s; for `O=C(Cn1ccc2sccc2c1=O)Nc1cccc(C(F)(F)F)c1` it is 834 s. The figure for `COc1ccc2sc(Nc3nnc(-c4ccc5c(c4)OCCO5)o3)nc2c1` is 802 s; for `Cc1ccc(CNC(=O)CNC(=O)N2CCSc3nc(C)cc(C)c32)cc1` it is 670 s.

As for `Cc1cc2c(c(=O)n(-c3ccc(F)cc3)c(=O)n2CC(=O)Nc2cccc(F)c2)n1C`, the RP-LC retention time turned out to be 840 s. `COc1cccc(-c2cn3ccn(-c4ccccc4OC)c(=O)c3n2)c1` gave an RP-LC retention time of 780 s. The figure for `c1ccc(-c2nc3cc(-c4noc(-c5ccc6nc[nH]c6c5)n4)ccc3o2)cc1` is 888 s; for `O=C(NCc1ccco1)N1CCN(c2nc3ccccc3nc2C(F)(F)F)CC1` it is 954 s. The figure for `CCOC(=O)c1ccc2nc(C(F)(F)F)nc(NCc3ccc(Cl)cc3)c2c1` is 1240 s; for `Cc1ccc(C)c(NC(=O)c2cc3c(=O)n(CC(C)C)ccc3n2C)c1` it is 884 s. Molecule `O=C(Nc1ccc2c(c1)OCO2)C(=O)c1cccn1Cc1ccccc1` came in with an RP-LC retention time of 986 s. The figure for `CN(C)S(=O)(=O)c1ccc(-c2nnc(C(=O)NC3CCCCCC3)o2)cc1` is 926 s; for `O=C1COc2ccc(-c3csc(NC(=O)C4CCCCC4)n3)cc2N1` it is 884 s; for `CCCn1cc(CCNS(=O)(=O)c2ccccc2CC)c2cccnc21` it is 923 s. The figure for `CC1=C(C(=O)Nc2ccccc2F)C2(CCN(C(C)C)CC2)OC1=O` is 613 s. To `Cc1c(-c2ccnc(N3CCN(C)CC3)n2)cnc2nc(SCc3ccccc3)nn12` belongs 672 s; to `COc1ccc(N2CCN(S(=O)(=O)c3cc(-c4csc(C)n4)sc3C)CC2)cc1`, 1090 s. The molecule `CCS(=O)(=O)N1CC(=O)N(c2ccc(Cl)cc2)C(C)(C(=O)NCc2ccc(F)cc2)C1` (centres undefined) showed an RP-LC retention time of 840 s. In turn, `CCOC(=O)c1c(C)[nH]c(C)c1S(=O)(=O)N1CCC(C(=O)NC2CCCC2)CC1` came in with an RP-LC retention time of 735 s. Take `O=C(Cc1cc(-c2ccc(Cl)cc2)on1)NCCCn1ccnc1`: the RP-LC retention time came out at 582 s. As to `Cc1ccc(CSc2ncnc3nc[nH]c23)cc1`, the RP-LC retention time amounted to 774 s. Take `O=C(Nc1cc(F)ccc1F)N1CCCC1c1nc(-c2ccccc2)no1` (centres undefined): the RP-LC retention time stood at 1020 s. The molecule `CCS(=O)(=O)N1CC(=O)N(c2cccc(F)c2)C(C)(C(=O)NCc2ccccc2)C1` (centres undefined) yielded an RP-LC retention time of 779 s. In turn, `CCCc1noc(-c2ccnc(-n3cnc(C(=O)NC4CCCC4)c3)c2)n1` gave an RP-LC retention time of 952 s. To `COc1cc(-c2nc3ccc(C)cn3c2Nc2ccccc2C)ccc1O` belongs 661 s. The figure for `O=C1CC(c2cc(F)cc(F)c2)Cc2nc(N3CCN(c4ccc(F)cc4)CC3)ncc21` (centres undefined) is 719 s; for `O=C(c1cccs1)N1CCc2ccc(NS(=O)(=O)c3ccccc3Cl)cc2C1` it is 804 s; for `Cc1ccccc1Nc1c(-c2ccccc2)nc2c(C)cccn12` it is 733 s. For `CCc1noc(NC(C)=O)c1-c1ccc(C)c(S(=O)(=O)Nc2ccc(Br)cc2F)c1`, the RP-LC retention time was 903 s. For the molecule `O=C(NC1CCCC1)C1CCc2sc(C(=O)N3CCCC3)cc2C1` (centres undefined), the RP-LC retention time was 777 s.

In turn, `Cc1ccc(-n2c(=O)c3c(cc(C)n3C)n(CC(=O)Nc3ccccc3C)c2=O)cc1` came in with an RP-LC retention time of 846 s. The figure for `Cc1ccc(NC(=O)C2CCCN(S(=O)(=O)c3cc(-c4noc(C5CCC5)n4)cs3)C2)cc1` (centres undefined) is 1170 s; for `COc1ccccc1-c1noc(C2CCCN2C(=O)Nc2ccc(C)cc2)n1` (centres undefined) it is 877 s. To `O=C(c1nnc(-c2ccc(S(=O)(=O)N3CCCCC3)cc2)o1)N1CCC2(CC1)OCCO2` belongs 884 s.
